Measured values: patent publication US20210323940A1 (OCEANS LTD., priority 2018, published 2021)

Assay: Murine flank tumour model, synthesized compound (II) (DHODO): body weights
Assay type: in vivo, nude mice (strain J:NU)
Procedure: To establish the tumours, MDA-MB-231 breast cancer cells (2.5 million cells in 100 pl 50:50 matrigel:DMEM) were injected subcutaneously into both right and left flanks. Tumours were evaluated over a 2-week period until sufficient volume growth (approximately 20 mm3) for subsequent analysis had occurred. During this period, body weights were measured twice weekly. Mice with established tumours were treated every second day by intraperitoneal injections of test compounds over a 4-week time course. From each group a minimum of 15 tumours were selected for analysis. Tumours were measured weekly using external calipers and volumes established using the modified ellipsoidal formula: tumour volume=0.5 (length×width2). In addition, body weights and general animal health were assessed twice weekly during the treatment period. At study termination, mice were sacrificed and tumours excised from the flank was weighed. To evaluate tumour metastasis, an explorative necropsy was conducted in each mouse and the presence and frequency of additional tumours at sites distal to the flank were assessed.

## CCCCC[C@H](O)[C@H](O)/C=C/[C@@H]1CCCCCCCC(=O)O1 [compound (II), 12R, 13S-Dihydroxy-10-Octadecen-9S-olide]
1 mg/kg
  Body weight change Δ over the four-week trial: 0.6 g
1 mg/kg, Week 1
  Body weight: 21.9 g
1 mg/kg, Week 2
  Body weight: 22.5 g
1 mg/kg, Week 3
  Body weight: 22.1 g
1 mg/kg, Week 4
  Body weight: 22.5 g
5 mg/kg
  Body weight change Δ over the four-week trial: 0.9 g
5 mg/kg, Week 1
  Body weight: 23.8 g
5 mg/kg, Week 2
  Body weight: 24.8 g
5 mg/kg, Week 3
  Body weight: 24.3 g
5 mg/kg, Week 4
  Body weight: 24.9 g
10 mg/kg
  Body weight change Δ over the four-week trial: 0.8 g
10 mg/kg, Week 1
  Body weight: 24.2 g
10 mg/kg, Week 2
  Body weight: 24.8 g
10 mg/kg, Week 3
  Body weight: 24.3 g
10 mg/kg, Week 4
  Body weight: 25.0 g
